For test [1], the system named is bile acid loaded rats without partial ligation surgery. Nature of the test: Cholestasis-caused hepatopathy model, bile acid loading without partial ligation, protocol B (Test Example 5). Format: in vivo, rat. To be noted: 0.1 mg/kg twice a day 3.5 days, distilled water, average ± standard error. As for the experimental part:
“Cholestasis-Caused Hepatopathy” Model (Bile Duct Partial Ligation Model)
The “cholestasis-caused hepatopathy” model by partial ligation surgery of bile duct in this test example was handled by referring to the method by Kanno et al. [Kanzo (Liver) 43 Suppl (1): A126, 2002].
That is, the abdomen of a 7 to 10 weeks old SD (IGS) male rat was cut open under anesthesia with pentobarbital and partial ligation surgery of the bile duct was carried out. A blood sample was taken from the femoral vein before the surgery and this was taken as pre-administration value. The test compound and 200 mg/kg of bile acid were forcibly orally administered twice a day for 3.5 days from the next day of the surgery (protocol A). The test compound and 200 mg/kg of bile acid were forcibly orally administered twice a day for 3.5 days without carrying out the partial ligation surgery (protocol B). In both the cases, the test compound was dissolved or suspended in distilled water or an aqueous solution of 1% HCO60 (manufactured by NIPPON CHEMICALS COMPANY, LTD.). […] Moreover, to consider the influence of the surgery, a pseudo operation group (a Sham group) was established as necessary. After 6 hours from the administration of the drug on the last day of the test, a blood sample was taken from the abdominal aorta and AST (GOT), ALT (GPT), and ALP in the blood were measured by using a measurement kit (GOTII-HA TEST WAKO, GPTII-HA TEST WAKO, and ALKALINE PHOSPHER-HA TEST WAKO respectively, all manufactured by WAKO PURE CHEMICAL […], LTD.) with an auto analyzer (NITTECH ANALYZER SUPER Z818).

The subject of test [2] is Na+ dependent amino acid transporter. Nature of the test: In vitro assay on Na+ dependent amino acid transporter using Cos 7 cells (Test Example 10). The format is cell-based. To be noted: [3H] alanine 8 μM, 37° C., 60 minutes, read-out: IC50 (μM) against alanine transporter. As for the experimental part: In Vitro Assay of Effects of Compounds on Na^+ Dependent Amino Acid Transporter and Na^+ Dependent Water-Soluble Vitamin Transporter Using Cos 7 Cells
In this test example, the in vitro assays of the compound on various transporters using Cos 7 cells were carried out according to the method described in Published Translation of Japanese Patent Application No.10-503830.
That is, […] of Cos 7 cells were inoculated on a 24-well cell plate. Two days later, the cells were washed once with an assay buffer, Hank's buffer solution containing 25 mM glucose and with 10 mM HEPES (ph 7.4), and then the buffer was replaced by an assay buffer to which the test compound was added. After adding to this, [^3H] alanine (trade name; NET-348, manufactured by DAIICHI CHEMICAL CO., LTD.), [^3H] leucine (trade name: NET-460, manufactured by DAIICHI CHEMICAL CO., LTD.), [^3H] phenylalanine (trade name: MT903, MORAVEK), [^3H] methionine (trade name: MT862, MORAVEK), [^3H] lysine (trade name: MT909, MORAKEK), or [^3H] choline (trade name: TRK593, […] BIOSCIENCES CO., LTD.) to a final concentration of 8 μM, the mixture was incubated at 37° C. for 60 minutes to allow Cos 7 cells to incorporate them. […] Measurement of the radioactivity was carried out by introducing the lyzate in 4 ml of liquid scintillation cocktail, stirring the mixture well, and then measuring on a liquid scintillation counter. […]

The target in another test is T1, rat IBAT (Rattus norvegicus, UniProt Q62633).
T1 construct: expressed in transfected cells; host or cells: Cos 7
T1 sequence (Q62633 1-348): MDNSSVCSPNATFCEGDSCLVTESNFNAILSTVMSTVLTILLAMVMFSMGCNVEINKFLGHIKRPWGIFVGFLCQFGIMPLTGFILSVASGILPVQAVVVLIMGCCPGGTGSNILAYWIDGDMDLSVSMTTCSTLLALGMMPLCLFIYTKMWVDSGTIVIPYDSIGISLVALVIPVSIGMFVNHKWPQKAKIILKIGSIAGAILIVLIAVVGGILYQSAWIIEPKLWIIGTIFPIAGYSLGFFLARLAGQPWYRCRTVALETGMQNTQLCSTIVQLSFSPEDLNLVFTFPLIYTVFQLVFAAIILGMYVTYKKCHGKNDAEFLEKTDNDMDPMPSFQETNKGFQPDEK
Description: In vitro assay of temporarily expressed rat IBAT transporter using Cos 7 cells (Test Example 8). The format is cell-based. To be noted: Cos 7 cells temporarily expressing rat IBAT; [3H] taurocholate 8 μM, 37° C., 60 minutes. Here is the method:
In Vitro Assay of Compounds Which Inhibit Temporarily Expressed Human IBAT Transporter or Rat IBAT Transporter Using Cos 7 Cells
In this test example, the in vitro assay of the compounds which inhibit temporarily expressed human IBAT transporter or rat IBAT transporter using Cos cells was carried out according to the method described in Am. J. Physiol., 274, G157-169.
That is, […] Cos 7 were inoculated on a 24-well cell plate. One day later, 0.3 μg per well of cDNA of a human IBAT or a rat IBAT was transfected by using FuGENE6 (manufactured by ROCHE PHARMACEUTICAL CO., LTD.). For the assay, the cells cultured for one day after the transfection were used and the following procedure was followed. The cells were washed once with an assay buffer, Hank's buffer solution containing 25 mM glucose and with 10 mM HEPES (pH 7.4), and then the assay buffer was replaced by an assay buffer to which the test compound was added. After adding [^3H] taurocholate to a final concentration of 8 μM, the cells were incubated at 37° C. for 60 minutes. [^3H] taurocholate was allowed to be incorporated in Cos 7 cells through human IBAT or rat IBAT. The reaction was stopped by washing twice with a buffer prepared by adding 1 mM taurocholate to the assay buffer and lyzing the cells with 0.2M NaOH. Measurement of radioactivity was carried out by introducing the cell lyzate in 4 ml of liquid scintillation cocktail, stirring the mixture well, and then measuring the radioactivity by a scintillation counter.

Each structure is given as a SMILES string.

For orientation: IC50 means the concentration that inhibits the measured activity by half.

Regarding `CCCCC1(CCCC)CS(=O)(=O)c2ccc(N(C)C)cc2C(c2cccc(NC(=S)CCCCC[N+]34CCC(CC3)CC4)c2)N1.[Br-]` (stereo not drawn) [Example 1, 1-{5-[3-(3,3-Dibutyl-7-dimethylamino-1,1-dioxo-2,3,4,5-tetrahydro-1,4-benzothiazepin-5-yl)phenylthiocarbamoyl]pentyl}-1-azoniabicyclo[2.2.2]octane bromide], the ALT in test [1] (control 82 ± 17) is 53 ± 6 IU/L. In test [1] (control 157 ± 35), the AST stood at 100 ± 2 IU/L. Further, the ALP in test [1] (control 593 ± 77) is given as 453 ± 50 IU/L. Further, the half-inhibitory concentration (IC50) in test [2] came to 33 µM; at rat IBAT, 7 nM.
With `CCCCC1(CCCC)CS(=O)(=O)c2ccc(N(C)C)cc2C(c2cccc(NC(=S)Nc3ccc(C[N+](C)(C)Cc4ccccc4)cc3)c2)N1.[Br-]` (stereo not drawn) [Example 3440], on rat IBAT, the concentration for half-maximal inhibition (IC50) stood at 10 nM.
